Measurements reported in patent US20230192705A1, “SHP2 INHIBITORS, COMPOSITIONS AND USES THEREOF” (Betta Pharmaceuticals Co., Ltd, priority 2020, published 2023).

Biological target: T1, SHP2 (Homo sapiens, UniProt Q06124)
T1 sequence (Q06124 1-593): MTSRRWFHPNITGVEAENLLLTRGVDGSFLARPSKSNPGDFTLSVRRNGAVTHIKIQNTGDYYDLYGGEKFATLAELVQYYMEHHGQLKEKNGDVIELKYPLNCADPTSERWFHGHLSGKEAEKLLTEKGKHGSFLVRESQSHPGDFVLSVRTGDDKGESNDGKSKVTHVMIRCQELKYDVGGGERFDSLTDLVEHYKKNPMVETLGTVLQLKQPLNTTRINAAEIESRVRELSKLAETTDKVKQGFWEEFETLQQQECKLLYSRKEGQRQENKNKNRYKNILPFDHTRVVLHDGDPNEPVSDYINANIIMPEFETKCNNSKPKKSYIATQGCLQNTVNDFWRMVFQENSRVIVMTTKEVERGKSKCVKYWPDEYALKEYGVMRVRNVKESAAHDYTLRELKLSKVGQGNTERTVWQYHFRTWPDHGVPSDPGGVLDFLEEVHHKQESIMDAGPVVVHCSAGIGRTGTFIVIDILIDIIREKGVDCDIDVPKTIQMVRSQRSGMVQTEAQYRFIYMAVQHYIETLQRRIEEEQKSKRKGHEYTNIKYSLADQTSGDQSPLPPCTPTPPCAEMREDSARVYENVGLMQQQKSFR
Test: SHP2 allosteric inhibitor enzyme activity assay (DiFMUP fluorescence)
Format: biochemical
Conditions: class symbols
Procedure, shortened: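 SHP2 activated by 0.5 μM IRS1_pY1172(dPEG8)pY1222 peptide, 0.2 ng enzyme per well, 1 h at room temperature with compound (1 μM top, 3-fold series), then DiFMUP substrate 1 h. Buffer: 60 mM HEPES, 75 mM NaCl, 75 mM KCl, 0.05% BRIJ-35, 1 mM EDTA, 5 mM DTT. Fluorescence ex 340/em 450 nm; IC50 by variable-slope fit.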

## N[C@@H]1c2ccccc2CC12CCN(c1nc3[nH]nc(C4(c5ccc(Cl)cc5Cl)CC4)c3c(=O)[nH]1)CC2 [Example 235, (S)-6-(1-amino-1,3-dihydrospiro[indene-2,4′-piperidin]-1′-yl)-3-(1-(2,4-dichlorophenyl)cyclopropyl)-1,5-dihydro-4H-pyrazolo[3,4-d]pyrimidin-4-one]
  IC50: ≤ 20 nM

## N[C@@H]1c2ccccc2CC12CCN(c1nc3[nH]nc(C4(c5ccsc5)CC4)c3c(=O)[nH]1)CC2 [Example 236, (S)-6-(1-amino-1,3-dihydrospiro[indene-2,4′-piperidin]-1′-yl)-3-(1-(thiophen-3-yl)cyclopropyl)-l,5-dihydro-4H-pyrazolo[3,4-d]pyrimidin-4-one]
  IC50: ≤ 20 nM

## N#Cc1nnc(C2(c3n[nH]c4nc(N5CCC6(CC5)Cc5ccccc5[C@H]6N)[nH]c(=O)c34)CC2)s1 [Example 238, (S)-5-(1-(6-(1-amino-1,3-dihydrospiro[indene-2,4′-piperidin]-1′-yl)-4-oxo-4,5-dihydro-1H-pyrazolo[3,4-d]pyrimidin-3-yl)cyclopropyl)-1,3,4-thiadiazole-2-carbonitrile]
  IC50: ≤ 20 nM

## N[C@@H]1c2ccccc2CC12CCN(c1nc3[nH]nc(C4(c5nncs5)CC4)c3c(=O)[nH]1)CC2 [Example 239, (S)-3-(1-(1,3,4-thiadiazol-2-yl)cyclopropyl)-6-(1-amino-1,3-dihydrospiro[indene-2,4′-piperidin]-1′-yl)-1,5-dihydro-4H-pyrazolo[3,4-d]pyrimidin-4-one]
  IC50: ≤ 20 nM

## Cc1snnc1C1(c2n[nH]c3nc(N4CCC5(CC4)Cc4ccccc4[C@H]5N)[nH]c(=O)c23)CC1 [Example 241, (S)-6-(1-amino-1,3-dihydrospiro[indene-2,4′-piperidin]-1′-yl)-3-(1-(5-methyl-1,2,3-thiadiazol-4-yl)cyclopropyl)-1,5-dihydro-4H-pyrazolo[3,4-d]pyrimidin-4-one]
  IC50: ≤ 20 nM

## N[C@@H]1c2ccccc2CC12CCN(c1nc3[nH]nc(C4(c5ccc[s+]5[O-])CC4)c3c(=O)[nH]1)CC2 (stereo partly drawn) [Example 242, 6-((S)-1-amino-1,3-dihydrospiro[indene-2,4′-piperidin]-1′-yl)-3-(1-(1-oxidothiophen-2-yl)cyclopropyl)-1,5-dihydro-4H-pyrazolo[3,4-d]pyrimidin-4-one]
  IC50: ≤ 20 nM

## N[C@@H]1c2ccccc2CC12CCN(c1nc3[nH]nc(C4(c5ncco5)CC4)c3c(=O)[nH]1)CC2 [Example 243, (S)-6-(1-amino-1,3-dihydrospiro[indene-2,4′-piperidin]-1′-yl)-3-(1-(oxazol-2-yl)cyclopropyl)-1,5-dihydro-4H-pyrazolo[3,4-d]pyrimidin-4-one]
  IC50: ≤ 20 nM

## Cc1cnc(C2(c3n[nH]c4nc(N5CCC6(CC5)Cc5ccccc5[C@H]6N)[nH]c(=O)c34)CC2)o1 [Example 244, (S)-6-(1-amino-1,3-dihydrospiro[indene-2,4′-piperidin]-1′-yl)-3-(1-(5-methyloxazol-2-yl)cyclopropyl)-1,5-dihydro-4H-pyrazolo[3,4-d]pyrimidin-4-one]
  IC50: ≤ 20 nM

## N[C@@H]1c2ccccc2CC12CCN(c1nc3[nH]nc(C4(c5ncccn5)CC4)c3c(=O)[nH]1)CC2 [Example 245, (S)-6-(1-amino-1,3-dihydrospiro[indene-2,4′-piperidin]-1′-yl)-3-(1-(pyrimidin-2-yl)cyclopropyl)-1,5-dihydro-4H-pyrazolo[3,4-d]pyrimidin-4-one]
  IC50: ≤ 20 nM

## N[C@@H]1c2ccccc2CC12CCN(c1nc3[nH]nc(C4(c5nn[nH]n5)CC4)c3c(=O)[nH]1)CC2 [Example 246, (S)-3-(1-(2H-tetrazol-5-yl)cyclopropyl)-6-(1-amino-1,3-dihydrospiro[indene-2,4′-piperidin]-1′-yl)-1,5-dihydro-4H-pyrazolo[3,4-d]pyrimidin-4-one]
  IC50: ≤ 20 nM

## N[C@@H]1c2ccccc2CC12CCN(c1nc3[nH]nc(C4(c5cccnc5)CC4)c3c(=O)[nH]1)CC2 [Example 247, (S)-6-(1-amino-1,3-dihydrospiro[indene-2,4′-piperidin]-1′-yl)-3-(1-(pyridin-3-yl)cyclopropyl)-1,5-dihydro-4H-pyrazolo[3,4-d]pyrimidin-4-one]
  IC50: ≤ 20 nM

## Cc1cccc(C2(c3n[nH]c4nc(N5CCC6(CC5)Cc5ccccc5[C@H]6N)[nH]c(=O)c34)CC2)n1 [Example 248, (S)-6-(1-amino-1,3-dihydrospiro[indene-2,4′-piperidin]-1′-yl)-3-(1-(6-methylpyridin-2-yl)cyclopropyl)-1,5-dihydro-4H-pyrazolo[3,4-d]pyrimidin-4-one]
  IC50: ≤ 20 nM

## N[C@@H]1c2ccccc2CC12CCN(c1nc3[nH]nc(C4(c5coc6ccccc56)CC4)c3c(=O)[nH]1)CC2 [Example 250, (S)-6-(1-amino-1,3-dihydrospiro[indene-2,4′-piperidin]-1′-yl)-3-(1-(benzofuran-3-yl)cyclopropyl)-1,5-dihydro-4H-pyrazolo[3,4-d]pyrimidin-4-one]
  IC50: ≤ 20 nM

## N[C@@H]1c2ccccc2CC12CCN(c1nc3[nH]nc(C4(c5nc6ccccc6[nH]5)CC4)c3c(=O)[nH]1)CC2 [Example 251, (S)-3-(1-(1H-benzo[d]imidazol-2-yl)cyclopropyl)-6-(1-amino-1,3-dihydrospiro[indene-2,4′-piperidin]-1′-yl)-1,5-dihydro-4H-pyrazolo[3,4-d]pyrimidin-4-one]
  IC50: 20 to 60 nM

## N[C@@H]1c2ccccc2CC12CCN(c1nc3[nH]nc(C4(c5c[nH]nn5)CC4)c3c(=O)[nH]1)CC2 [Example 253, (S)-3-(1-(1H-1,2,3-triazol-4-yl)cyclopropyl)-6-(1-amino-1,3-dihydrospiro[indene-2,4′-piperidin]-1′-yl)-1,5-dihydro-4H-pyrazolo[3,4-d]pyrimidin-4-one]
  IC50: ≤ 20 nM

## N[C@@H]1c2ccccc2CC12CCN(c1nc3[nH]nc(C4(c5ccco5)CC4)c3c(=O)[nH]1)CC2 [Example 256, (S)-6-(1-amino-1,3-dihydrospiro[indene-2,4′-piperidin]-1′-yl)-3-(1-(furan-2-yl)cyclopropyl)-1,5-dihydro-4H-pyrazolo[3,4-d]pyrimidin-4-one]
  IC50: ≤ 20 nM

## C[C@@H]1OCC2(CCN(c3cnc(C4(c5ccccc5)CC4)cn3)CC2)[C@@H]1N [Example 258, (3S,4S)-3-methyl-8-(5-(1-phenylcyclopropyl)pyrazin-2-yl)-2-oxa-8-azaspiro[4.5]decan-4-amine]
  IC50: > 60 nM

## C[C@@H]1OCC2(CCN(c3ncc(C4(c5ccccc5)CC4)nc3C(N)=O)CC2)[C@@H]1N [Example 259, 3-((3S,4S)-4-amino-3-methyl-2-oxa-8-azaspiro[4.5]decan-8-yl)-6-(1-phenylcyclopropyl)pyrazine-2-carboxamide]
  IC50: > 60 nM

## C[C@@H]1OCC2(CCN(c3ncc(C4(c5ccccc5)CC4)nc3CO)CC2)[C@@H]1N [Example 260, (3-((3S,4S)-4-amino-3-methyl-2-oxa-8-azaspiro[4.5]decan-8-yl)-6-(1-phenylcyclopropyl)pyrazin-2-yl)methanol]
  IC50: > 60 nM

## Cc1nc(N2CCC3(CC2)CO[C@@H](C)[C@H]3N)c(CO)nc1C1(c2ccccc2)CC1 [Example 261, (3-((3S,4S)-4-amino-3-methyl-2-oxa-8-azaspiro[4.5]decan-8-yl)-5-methyl-6-(1-phenylcyclopropyl)pyrazin-2-yl)methanol]
  IC50: > 60 nM

## C[C@@H]1OCC2(CCN(c3ncc(C4(c5ccccc5)CC4)c(=O)[nH]3)CC2)[C@@H]1N [Example 262, 2-((3S,4S)-4-amino-3-methyl-2-oxa-8-azaspiro[4.5]decan-8-yl)-5-(1-phenylcyclopropyl)pyrimidin-4(3H)-one]
  IC50: > 60 nM
